# Literature values, collected in patent publication US20040063167A1, “Minimising calibration problems of in vivo glucose sensors” (priority 2002, published 2004).
# System: animal, plant and bacterial cells in culture
smiles,measurement,setting,value
"OO [H2O2, Hydrogen peroxide]",levels of H2O2 that seem to have limited cytotoxicity,"many cell types, ""at or below about""",20 to 50 µM
same,levels of H2O2 described as being cytotoxic,"wide range of animal, plant and bacterial cells in culture, ""usually""",≥ 50 µM
